According to patent publication US20240246992A1, “MACROCYCLIC LRRK2 KINASE INHIBITORS” (LES LABORATOIRES SERVIER, priority 2021, published 2024):

target: human recombinant LRRK2 protein (Homo sapiens, UniProt Q5S007); test: LRRK2 kinase activity assay (ADP-Glo, LRRKtide peptide); assay type: biochemical; details: human recombinant LRRK2 wt, LRRKtide peptide and ATP, 1 h at 37° C.
Procedure: The inhibition of LRRK2 kinase was assessed using human recombinant LRRK2 protein in an in vitro peptide-based kinase assay.
LRRK2 Kinase reactions were carried out in 384-well white polystyrene plates in a final volume of 6 μl using ADP-Glo™ Kinase Assay kit (Promega Corp.). Compound and substrates (LRRKtide peptide and ATP) in assay buffer were first dispensed in wells. Kinase reaction was then started by the addition of human recombinant LRRK2 protein. After 1 h-incubation at 37° C., the enzymatic reactions was stopped by the addition of 6 μl of ADP-Glo Reagent-1 and an additional 40-minutes incubation at 23° C. (residual ATP depletion). A final 30-minutes incubation after 12 μL reagent-2 addition (ADP to ATP conversion and luciferin/luciferase reaction) was performed before luminescent signal acquisition (EnVision™ multimode plate reader—PerkinElmer, Inc.). Data from 10 individual concentrations of tested compounds (N=2) were fitted (XLfit™—ID Business Solutions Ltd) to deliver IC50s (compound concentration leading to 50% inhibition of reference enzymatic activity).
The compounds are dissolved to 5 mM in DMSO. When needed, solutions are sonicated in a bath sonicator.
Table 2 provides the pIC50 values of the compounds according to the invention, obtained using the above mentioned kinase assay. Activities are represented as +++, ++ and +, having the following meanings: • «+++» means an IC50<10 nM • «++» means an IC50<100 nM • «+» means an IC50<1 μM • «−» means an IC50>1 μM

human recombinant LRRK2 protein, sequence (Q5S007 whole entry): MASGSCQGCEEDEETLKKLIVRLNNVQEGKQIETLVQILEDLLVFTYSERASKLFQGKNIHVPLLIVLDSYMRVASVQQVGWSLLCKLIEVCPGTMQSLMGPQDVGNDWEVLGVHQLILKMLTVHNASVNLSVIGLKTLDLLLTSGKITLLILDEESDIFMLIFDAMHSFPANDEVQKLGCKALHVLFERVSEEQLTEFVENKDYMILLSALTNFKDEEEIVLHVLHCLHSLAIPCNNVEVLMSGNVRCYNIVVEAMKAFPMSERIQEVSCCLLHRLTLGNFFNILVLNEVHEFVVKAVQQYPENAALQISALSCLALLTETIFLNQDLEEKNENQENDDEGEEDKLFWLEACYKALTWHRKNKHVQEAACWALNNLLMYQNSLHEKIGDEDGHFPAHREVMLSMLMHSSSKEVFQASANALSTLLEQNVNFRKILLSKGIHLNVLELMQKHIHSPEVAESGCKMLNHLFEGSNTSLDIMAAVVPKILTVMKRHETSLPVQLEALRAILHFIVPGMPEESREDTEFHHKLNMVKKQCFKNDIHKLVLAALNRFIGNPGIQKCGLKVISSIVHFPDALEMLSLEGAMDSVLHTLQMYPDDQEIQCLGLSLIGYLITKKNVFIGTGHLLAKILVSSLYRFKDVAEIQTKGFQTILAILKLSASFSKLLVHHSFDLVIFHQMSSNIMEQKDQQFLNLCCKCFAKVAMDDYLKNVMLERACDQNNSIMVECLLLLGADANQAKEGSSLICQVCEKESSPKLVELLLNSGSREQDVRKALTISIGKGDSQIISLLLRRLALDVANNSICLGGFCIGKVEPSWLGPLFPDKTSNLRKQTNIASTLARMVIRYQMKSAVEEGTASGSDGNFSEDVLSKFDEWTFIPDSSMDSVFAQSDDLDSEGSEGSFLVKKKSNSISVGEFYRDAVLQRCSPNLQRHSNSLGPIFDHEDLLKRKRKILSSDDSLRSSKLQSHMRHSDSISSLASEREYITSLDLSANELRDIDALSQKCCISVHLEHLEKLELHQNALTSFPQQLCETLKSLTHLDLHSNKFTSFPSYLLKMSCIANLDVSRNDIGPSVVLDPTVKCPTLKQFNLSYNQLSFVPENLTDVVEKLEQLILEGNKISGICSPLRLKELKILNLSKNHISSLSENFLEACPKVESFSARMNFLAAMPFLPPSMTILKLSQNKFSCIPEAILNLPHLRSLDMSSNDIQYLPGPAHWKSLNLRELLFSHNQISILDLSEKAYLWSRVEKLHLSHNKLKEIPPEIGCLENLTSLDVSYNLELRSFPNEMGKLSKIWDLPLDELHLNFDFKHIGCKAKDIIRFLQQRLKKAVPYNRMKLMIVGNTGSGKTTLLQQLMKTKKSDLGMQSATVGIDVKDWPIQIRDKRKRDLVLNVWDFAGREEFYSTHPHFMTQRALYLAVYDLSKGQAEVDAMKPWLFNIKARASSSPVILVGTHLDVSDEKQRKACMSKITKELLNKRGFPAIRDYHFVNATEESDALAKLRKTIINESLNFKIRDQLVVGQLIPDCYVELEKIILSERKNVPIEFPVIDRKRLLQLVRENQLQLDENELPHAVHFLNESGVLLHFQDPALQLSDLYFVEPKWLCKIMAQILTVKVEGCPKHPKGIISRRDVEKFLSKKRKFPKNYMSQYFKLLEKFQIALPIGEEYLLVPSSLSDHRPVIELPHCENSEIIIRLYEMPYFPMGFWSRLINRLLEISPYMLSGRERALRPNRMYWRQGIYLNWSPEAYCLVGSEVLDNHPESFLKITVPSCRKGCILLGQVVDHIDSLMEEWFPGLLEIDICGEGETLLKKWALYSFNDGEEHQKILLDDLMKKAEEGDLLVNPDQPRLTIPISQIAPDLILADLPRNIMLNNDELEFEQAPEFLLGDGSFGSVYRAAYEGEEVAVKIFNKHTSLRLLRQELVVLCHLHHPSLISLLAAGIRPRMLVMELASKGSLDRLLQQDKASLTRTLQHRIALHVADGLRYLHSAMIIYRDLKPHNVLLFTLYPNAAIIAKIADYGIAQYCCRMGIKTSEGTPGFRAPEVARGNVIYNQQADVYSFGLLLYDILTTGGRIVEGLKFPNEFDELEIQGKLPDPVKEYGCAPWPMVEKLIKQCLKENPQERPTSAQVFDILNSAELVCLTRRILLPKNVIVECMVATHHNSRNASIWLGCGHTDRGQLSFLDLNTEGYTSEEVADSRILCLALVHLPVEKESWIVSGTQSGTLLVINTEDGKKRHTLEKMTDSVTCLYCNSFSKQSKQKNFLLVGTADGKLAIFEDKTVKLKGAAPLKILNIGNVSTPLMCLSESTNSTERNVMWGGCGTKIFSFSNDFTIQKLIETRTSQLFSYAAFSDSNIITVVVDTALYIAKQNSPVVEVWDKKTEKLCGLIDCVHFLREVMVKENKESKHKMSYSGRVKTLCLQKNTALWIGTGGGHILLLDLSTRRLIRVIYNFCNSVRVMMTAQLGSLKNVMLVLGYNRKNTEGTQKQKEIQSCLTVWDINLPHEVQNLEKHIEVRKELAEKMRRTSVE

| SMILES | IC50 [nM] |
| --- | --- |
| C[C@H]1COc2ccc3[nH]nc(c3c2)-c2cnn(c2)CCOCCO1 [Example 54, (12S)-12-methyl-8,11,14-trioxa-4,5,19,20-tetraazatetracyclo[13.5.2.1^2,5.0^18,21]tricosa-1(20),2(23),3,15(22),16,18(21)-hexaene] | < 10 |
| C[C@@H]1CCOCCCc2ncn(n2)-c2n[nH]c3ccc(cc23)O1 [Example 125, (12R)-12-methyl-9,13-dioxa-2,4,18,19,22-pentaazatetracyclo[12.5.2.1^2,5.0^17,20]docosa-1(19),3,5(22),14(21),15,17(20)-hexaene] | < 10 |
| O=C1COc2cncc(n2)-c2n[nH]c3ccc(cc23)OCCCN1 [Example 193, 7,14-dioxa-4,10,19,20,23-pentaazatetracyclo[13.5.2.1^2,6.0^18,21]tricosa-1(20),2(23),3,5,15(22),16,18(21)-heptaen-9-one] | < 10 |
| C[C@@H]1NC(=O)COc2cccc(c2)-c2n[nH]c3ccc(cc23)OC[C@H]1F [Example 183, (11S,12S)-12-fluoro-11-methyl-7,14-dioxa-10,19,20-triazatetracyclo[13.5.2.1^2,6.0^18,21]tricosa-1(20),2,4,6(23),15,17,21-heptaen-9-one] | < 100 |
| C[C@H]1COCCOCCn2ncc(n2)-c2n[nH]c3ccc(cc23)O1 [Example 81, (13S)-13-methyl-8,11,14-trioxa-4,5,19,20,23-pentaazatetracyclo[13.5.2.1^2,5.0^18,21]tricosa-1(20),2(23),3,15(22),16,18(21)-hexaene] | < 100 |
| O=C1COc2cc(-c3ccoc3)cc(c2)-c2n[nH]c3ccc(cc23)OCCCN1 [Example 213, 4-(furan-3-yl)-7,14-dioxa-10,19,20-triazatetracyclo[13.5.2.1^2,6.0^18,21]tricosa-1(20),2(23),3,5,15,17,21-heptaen-9-one] | < 10 |
| Fc1ccc2cc1OCCNCCCOc1ccc3[nH]nc-2c3c1 [Example 139, 5-fluoro-7,14-dioxa-10,19,20-triazatetracyclo[13.5.2.1^2,6.0^18,21]tricosa-1(20),2,4,6(23),15,17,21-heptaene] | < 10 |
| C[C@@H]1CCn2ncc(n2)-c2n[nH]c3ccc(cc23)O[C@H](C)CCO1 [Example 127, (8R,12R)-8,12-dimethyl-9,13-dioxa-4,5,18,19,22-pentaazatetracyclo [12.5.2.1^2,5.0^17,20]docosa-1(19),2(22),3,14(21),15,17(20)-hexaene] | < 10 |
| C[C@@H]1CCn2cc(cn2)-c2n[nH]c3ccc(cc23)O[C@H](C)CCO1 [Example 98, (8R,12R)-8,12-dimethyl-9,13-dioxa-4,5,18,19-tetraazatetracyclo[12.5.2.1^2,5.0^17,20]docosa-1(19),2(22),3,14(21),15,17(20)-hexaene] | < 10 |
| c1cc2[nH]nc3c2cc1OCCCOCCOc1cncc-3c1 [Example 2, 7,10,14-trioxa-4,19,20-triazatetracyclo[13.5.2.1^2,6.0^18,21]tricosa-1(20),2(23), 3,5,15(22),16,18(21)-heptaene] | < 10 |
| C[C@@H]1CCOCC[C@H](C)n2ncc(n2)-c2n[nH]c3ccc(cc23)O1 [Example 103, (6S,12R)-6,12-dimethyl-9,13-dioxa-4,5,18,19,22-pentaazatetracyclo[12.5.2.1^2,5.0^17,20]docosa-1(19),2(22),3,14(21),15,17(20)-hexaene] | < 10 |
| O=C1COCCn2ncc(n2)-c2n[nH]c3ccc(cc23)OCCN1 [Example 222, 8,14-dioxa-4,5,11,19,20,23-hexaazatetracyclo[13.5.2.1^2,5.0^18,21]tricosa-1(20),2(23),3,15(22),16,18(21)-hexaen-10-one] | < 1000 |
| COC1CN(c2cc3nc(n2)OCCCOC[C@H](C)Oc2ccc4[nH]nc-3c4c2)C1 [Example 27, (13S)-4-(3-methoxyazetidin-1-yl)-13-methyl-7,11,14-trioxa-5,19,20,23-tetra azatetracyclo[13.5.2.1^2,6.0^18,21]tricosa-1(20),2(23),3,5,15(22),16,18(21) heptaene] | < 10 |
| COCC1CCOc2ccc3[nH]nc(c3c2)-c2cccc(c2)OCCN1 (single isomer, unassigned) [Example 153, (11R) or (11S)-11-(methoxymethyl)-7,14-dioxa-10,19,20-triazatetracyclo[13.5.2.1^2,6.0^18,21]tricosa-1(20),2(23),3,5,15,17,21-heptaene] | < 100 |
| O=C1COc2cc(Br)cc(c2)-c2n[nH]c3ccc(cc23)OCCCN1 [Example 203, 4-bromo-7,14-dioxa-10,19,20-triazatetracyclo[13.5.2.1^2,6.0^18,21]tricosa-1(20),2(23),3,5,15,17,21-heptaen-9-one] | < 10 |
| O=C1COc2cccc(c2)-c2n[nH]c3ccc(cc23)OCCN1 [Example 192, 7,13-dioxa-10,18,19-triazatetracyclo[12.5.2.1^2,6.0^17,20]docosa-1(19),2(22),3,5,14(21),15,17(20)-heptaen-9-one] | < 1000 |
| C[C@H]1CCOC[C@H](C)Oc2cncc(n2)-c2n[nH]c3ccc(cc23)O1 [Example 47, (8S,13S)-8,13-dimethyl-7,10,14-trioxa-4,19,20,23-tetraazatetracyclo[13.5.2.1^2,6.0^18,21]tricosa-1(20),2(23),3,5,15(22),16,18(21)-heptaene] | < 100 |
| C[C@@H]1COCCCOc2nccc(n2)-c2n[nH]c3ccc(cc23)O1 [Example 7, (13R)-13-methyl-7,11,14-trioxa-5,19,20,23-tetraazatetracyclo[13.5.2.1^2,6.0^18,21]tricosa-1(20),2(23),3,5,15(22),16,18(21)-heptaene] | < 10 |
| O=C1CCc2cncc(c2)-c2n[nH]c3ccc(cc23)OCCCN1 [Example 220, 14-oxa-4,10,19,20-tetraazatetracyclo[13.5.2.1^2,6.0^18,21]tricosa-1(20),2(23),3,5,15(22),16,18(21)-heptaen-9-one] | < 10 |
| c1cc2[nH]nc3c2cc1OCCOCCCOCc1ncc-3s1 [Example 84, 7,11,14-trioxa-23-thia-4,19,20-triazatetracyclo[13.5.2.1^2,5.0^18,21]tricosa-1(20),2,4,15(22), 16,18(21)-hexaene] | < 10 |
| C[C@@H]1CCOC[C@H](C)Oc2ccc3[nH]nc(c3c2)-c2ccnc(n2)O1 [Example 53, (8R,13S)-8,13-dimethyl-7,11,14-trioxa-5,19,20,23-tetraazatetracyclo[13.5.2.1^2,6.0^18,21]tricosa-1(20),2(23),3,5,15(22),16,18(21)-heptaene] | < 10 |

Other lines, results leading:

| IC50 [nM] | SMILES |
| --- | --- |
| < 10 | O=C1COc2cc(cc(C3CCCCO3)c2)-c2n[nH]c3ccc(cc23)OCCCN1 (stereo not drawn) [Example 218, 4-(oxan-2-yl)-7,14-dioxa-10,19,20-triazatetracyclo[13.5.2.1^2,6.0^18,21]tricosa-1(20),2(23),3,5,15,17,21-heptaen-9-one] |
| < 100 | Cc1cc2[nH]nc3c2cc1OCCCNC(=O)COc1cncc-3c1 [Example 187, 16-methyl-7,14-dioxa-4,10,19,20-tetraazatetracyclo[13.5.2.1^2,6.0^18,21]tricosa-1(20),2(23),3,5,15(22),16,18(21)-heptaen-9-one] |
| < 10 | C[C@@H]1CCOC[C@H](C)Oc2ccc3[nH]nc(c3c2)-c2cncc(c2)O1 [Example 18, (8R,13S)-8,13-dimethyl-7,11,14-trioxa-4,19,20-triazatetracyclo[13.5.2.1^2,6. 0^18,21]tricosa-1(20),2(23),3,5,15(22),16,18(21)-heptaene] |
| < 10 | c1cc2[nH]nc3c2cc1NCCCOCCOc1cncc-3c1 [Example 4, 7,10-dioxa-4,14,19,20-tetraazatetracyclo[13.5.2.1^2,6.0^18,21]tricosa-1(20),2(23), 3,5,15(22),16,18(21)-heptaene] |
| < 10 | C[C@@H]1CCOCC[C@H](C)n2cc(cn2)-c2n[nH]c3ccc(cc23)O1 [Example 36, (6S,12R)-6,12-dimethyl-9,13-dioxa-4,5,18,19-tetraazatetracyclo[12.5.2.1^2,5.0^17,20]docosa-1(19),2(22),3,14(21),15,17(20)-hexaene] |
| < 10 | C[C@H]1CCOCCCn2ncc(n2)-c2n[nH]c3ccc(cc23)O1 [Example 92, (12S)-12-methyl-9,13-dioxa-4,5,18,19,22-pentaazatetracyclo[12.5.2.1^2,5.0^17,20]docosa-1(19),2(22),3,14(21),15,17(20)-hexaene] |
| < 10 | C[C@H]1COc2ccc3[nH]nc(c3c2)-c2cnn(c2)CCCCCO1 [Example 112, (12S)-12-methyl-11,14-dioxa-4,5,19,20-tetraazatetracyclo[13.5.2.1^2,5.0^18,21] tricosa-1(20),2(23),3,15(22),16,18(21)-hexaene] |
| < 10 | C[C@@H]1CCOCCCOc2ccc3[nH]nc(c3c2)-c2cnn1c2 [Example 8, (6R)-6-methyl-9,13-dioxa-4,5,18,19-tetraazatetracyclo[12.5.2.1^2,5.0^17,20] docosa-1(19),2(22),3,14(21),15,17(20)-hexaene] |
| < 10 | C[C@H]1CCOCCCOc2ccc3[nH]nc(c3c2)-c2cnn1c2 [Example 15, (6S)-6-methyl-9,13-dioxa-4,5,18,19-tetraazatetracyclo[12.5.2.1^2,5.0^17,20] docosa-1(19),2(22),3,14(21),15,17(20)-hexaene] |
